{
  "source": "ChEMBL document CHEMBL1201862",
  "about": "“PubChem BioAssay data set” (2004)",
  "key": {"[1]": {"target": "T1, Eukaryotic translation initiation factor 2-alpha kinase 3 (Homo sapiens, UniProt Q9NZJ5)", "T1 sequence (Q9NZJ5 whole entry)": "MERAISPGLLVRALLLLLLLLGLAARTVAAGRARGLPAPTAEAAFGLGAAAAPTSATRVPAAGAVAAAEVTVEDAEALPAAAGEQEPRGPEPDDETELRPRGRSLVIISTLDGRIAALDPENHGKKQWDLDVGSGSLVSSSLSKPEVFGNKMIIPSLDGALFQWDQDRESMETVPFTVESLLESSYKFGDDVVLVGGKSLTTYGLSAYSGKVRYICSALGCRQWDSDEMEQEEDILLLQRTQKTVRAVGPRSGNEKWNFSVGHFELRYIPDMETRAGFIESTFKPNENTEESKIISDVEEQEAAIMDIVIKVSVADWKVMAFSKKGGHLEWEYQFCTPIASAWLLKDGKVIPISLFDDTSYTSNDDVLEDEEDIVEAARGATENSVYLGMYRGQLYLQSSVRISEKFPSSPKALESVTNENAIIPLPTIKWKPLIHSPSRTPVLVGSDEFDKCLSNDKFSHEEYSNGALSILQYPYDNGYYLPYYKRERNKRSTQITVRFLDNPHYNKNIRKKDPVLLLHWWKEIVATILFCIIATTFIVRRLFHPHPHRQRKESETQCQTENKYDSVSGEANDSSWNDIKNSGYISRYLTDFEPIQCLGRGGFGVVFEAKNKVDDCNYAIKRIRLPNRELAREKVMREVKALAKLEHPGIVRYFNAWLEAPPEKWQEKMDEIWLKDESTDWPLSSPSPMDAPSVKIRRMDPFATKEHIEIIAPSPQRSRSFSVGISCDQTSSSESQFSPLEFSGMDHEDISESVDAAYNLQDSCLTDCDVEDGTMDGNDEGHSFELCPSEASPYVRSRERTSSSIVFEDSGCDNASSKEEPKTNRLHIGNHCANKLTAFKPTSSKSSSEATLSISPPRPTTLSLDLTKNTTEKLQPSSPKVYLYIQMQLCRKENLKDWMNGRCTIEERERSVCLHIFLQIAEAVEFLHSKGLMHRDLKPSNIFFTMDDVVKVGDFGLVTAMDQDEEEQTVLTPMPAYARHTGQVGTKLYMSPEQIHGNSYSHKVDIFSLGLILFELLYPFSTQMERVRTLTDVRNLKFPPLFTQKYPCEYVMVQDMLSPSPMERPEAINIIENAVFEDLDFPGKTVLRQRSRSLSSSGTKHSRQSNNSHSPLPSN", "assay": "Dose response cell-based high-throughput screening assay to measure PERK inhibition. [Related pubchem assays: 1416 ]", "type": "functional"}, "[2]": {"target": "T1, Eukaryotic translation initiation factor 2-alpha kinase 3", "assay": "Counterscreen assay for PERK inhibitors: Dose response cell-based high throughput screening assay to measure inhibition of PERK at 6 hours. [Related pubchem assays: 1522, 1416 ]", "type": "functional"}, "Estrogen receptor beta": {"target": "Estrogen receptor beta (Homo sapiens, UniProt Q92731)", "sequence (Q92731 whole entry)": "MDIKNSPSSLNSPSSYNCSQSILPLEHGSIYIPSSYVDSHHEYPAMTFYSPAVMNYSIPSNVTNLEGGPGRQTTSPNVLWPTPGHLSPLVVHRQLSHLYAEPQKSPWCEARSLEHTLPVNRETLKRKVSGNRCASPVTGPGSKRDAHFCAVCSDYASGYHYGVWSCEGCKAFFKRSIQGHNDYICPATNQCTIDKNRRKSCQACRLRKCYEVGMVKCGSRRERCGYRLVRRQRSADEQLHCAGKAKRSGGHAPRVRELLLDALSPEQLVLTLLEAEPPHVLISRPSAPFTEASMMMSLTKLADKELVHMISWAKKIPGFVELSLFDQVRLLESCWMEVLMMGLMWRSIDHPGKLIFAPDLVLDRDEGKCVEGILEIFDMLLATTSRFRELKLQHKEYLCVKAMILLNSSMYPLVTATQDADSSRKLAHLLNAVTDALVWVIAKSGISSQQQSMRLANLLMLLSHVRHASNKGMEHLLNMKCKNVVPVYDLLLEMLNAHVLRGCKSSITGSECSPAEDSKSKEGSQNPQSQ"}, "[3]": {"target": "T2, Voltage-dependent T-type calcium channel subunit alpha-1H (Homo sapiens, UniProt O95180)", "T2 sequence (O95180 whole entry)": "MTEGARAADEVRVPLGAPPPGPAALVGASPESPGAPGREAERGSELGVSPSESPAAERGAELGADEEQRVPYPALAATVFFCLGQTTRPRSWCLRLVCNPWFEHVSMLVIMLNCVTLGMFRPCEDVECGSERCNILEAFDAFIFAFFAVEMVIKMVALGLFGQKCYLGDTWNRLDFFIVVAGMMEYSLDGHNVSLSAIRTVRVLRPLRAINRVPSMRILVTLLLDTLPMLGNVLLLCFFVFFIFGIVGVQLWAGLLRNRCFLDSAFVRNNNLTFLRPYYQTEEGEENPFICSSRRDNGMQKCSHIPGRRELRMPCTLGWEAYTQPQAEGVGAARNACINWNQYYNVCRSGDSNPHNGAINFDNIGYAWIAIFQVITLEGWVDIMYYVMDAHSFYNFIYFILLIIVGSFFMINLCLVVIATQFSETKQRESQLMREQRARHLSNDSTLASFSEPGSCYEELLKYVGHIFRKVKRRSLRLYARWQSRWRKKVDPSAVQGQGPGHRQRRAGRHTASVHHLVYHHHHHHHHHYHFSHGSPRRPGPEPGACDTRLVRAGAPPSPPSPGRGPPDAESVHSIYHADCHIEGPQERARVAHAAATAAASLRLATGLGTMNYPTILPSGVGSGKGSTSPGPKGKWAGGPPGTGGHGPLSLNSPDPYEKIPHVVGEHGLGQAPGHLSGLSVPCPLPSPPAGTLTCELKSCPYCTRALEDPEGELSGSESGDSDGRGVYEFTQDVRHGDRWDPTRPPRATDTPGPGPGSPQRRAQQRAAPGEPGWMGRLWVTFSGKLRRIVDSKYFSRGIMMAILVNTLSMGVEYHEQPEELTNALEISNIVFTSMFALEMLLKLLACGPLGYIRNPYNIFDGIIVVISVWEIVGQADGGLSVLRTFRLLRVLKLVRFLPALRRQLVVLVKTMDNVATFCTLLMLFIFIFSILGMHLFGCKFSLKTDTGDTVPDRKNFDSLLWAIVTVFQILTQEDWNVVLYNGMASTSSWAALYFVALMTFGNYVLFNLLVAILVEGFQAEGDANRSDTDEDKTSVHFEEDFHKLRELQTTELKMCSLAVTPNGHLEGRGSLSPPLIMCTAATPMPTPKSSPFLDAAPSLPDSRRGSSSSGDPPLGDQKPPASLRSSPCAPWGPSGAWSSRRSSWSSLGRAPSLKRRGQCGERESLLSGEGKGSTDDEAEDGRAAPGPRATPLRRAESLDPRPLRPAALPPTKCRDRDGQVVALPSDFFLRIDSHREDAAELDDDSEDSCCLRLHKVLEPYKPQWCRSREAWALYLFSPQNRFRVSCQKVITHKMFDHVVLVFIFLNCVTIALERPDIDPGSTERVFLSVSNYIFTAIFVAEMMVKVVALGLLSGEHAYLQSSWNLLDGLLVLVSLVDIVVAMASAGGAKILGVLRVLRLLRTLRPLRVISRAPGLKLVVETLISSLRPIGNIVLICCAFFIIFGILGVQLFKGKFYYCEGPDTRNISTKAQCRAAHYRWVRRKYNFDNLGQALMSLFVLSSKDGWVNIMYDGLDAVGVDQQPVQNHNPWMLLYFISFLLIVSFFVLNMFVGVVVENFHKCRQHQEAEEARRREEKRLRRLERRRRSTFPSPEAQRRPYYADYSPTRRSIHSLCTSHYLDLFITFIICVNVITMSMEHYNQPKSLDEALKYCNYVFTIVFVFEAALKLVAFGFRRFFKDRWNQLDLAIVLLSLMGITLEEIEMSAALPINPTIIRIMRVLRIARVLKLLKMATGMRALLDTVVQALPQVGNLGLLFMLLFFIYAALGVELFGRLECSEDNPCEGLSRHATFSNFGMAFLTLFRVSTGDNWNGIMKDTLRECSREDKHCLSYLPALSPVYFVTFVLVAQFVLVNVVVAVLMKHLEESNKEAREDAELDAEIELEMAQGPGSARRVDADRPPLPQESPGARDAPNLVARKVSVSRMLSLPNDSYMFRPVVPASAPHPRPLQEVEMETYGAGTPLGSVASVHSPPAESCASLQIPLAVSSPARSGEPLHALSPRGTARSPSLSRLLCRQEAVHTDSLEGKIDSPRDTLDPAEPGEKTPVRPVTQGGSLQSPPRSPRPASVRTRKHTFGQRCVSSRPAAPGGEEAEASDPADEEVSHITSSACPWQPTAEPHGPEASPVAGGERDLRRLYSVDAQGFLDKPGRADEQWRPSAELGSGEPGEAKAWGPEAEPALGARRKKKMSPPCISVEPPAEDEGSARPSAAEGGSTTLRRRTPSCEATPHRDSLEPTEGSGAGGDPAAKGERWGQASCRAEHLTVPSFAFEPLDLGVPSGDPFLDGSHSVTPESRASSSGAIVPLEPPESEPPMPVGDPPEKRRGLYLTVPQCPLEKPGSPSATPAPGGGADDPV", "assay": "Inhibitors of T-Type Calcium Channels. [Related pubchem assays (depositor defined):AID449739, AID463087, AID489005, AID493041, AID504579, AID504584, AID504619, AID504628]", "type": "functional"}, "[4]": {"target": "T2, Voltage-dependent T-type calcium channel subunit alpha-1H", "type": "functional"}, "HEK293": {"test_system": "HEK293", "assay": "cells", "settings": "Homo sapiens"}, "[5]": {"target": "Nucleotide-binding oligomerization domain-containing protein 2 (Homo sapiens, UniProt Q9HC29)", "assay": "PubChem AID 2334", "type": "functional"}, "[6]": {"target": "Nucleotide-binding oligomerization domain-containing protein 1 (Homo sapiens, UniProt Q9Y239)", "assay": "NOD1 signaling inhibitors, SAR follow-up, revised (AID 2333)", "type": "functional"}, "Tumor necrosis factor": {"target": "Tumor necrosis factor (Homo sapiens, UniProt P01375)", "sequence (P01375 whole entry)": "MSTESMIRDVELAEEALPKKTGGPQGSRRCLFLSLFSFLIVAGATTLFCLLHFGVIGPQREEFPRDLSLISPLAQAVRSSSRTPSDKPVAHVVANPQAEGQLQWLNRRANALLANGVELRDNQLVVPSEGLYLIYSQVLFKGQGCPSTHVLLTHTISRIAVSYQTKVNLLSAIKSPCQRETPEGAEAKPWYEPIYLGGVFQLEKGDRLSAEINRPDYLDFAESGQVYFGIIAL", "assay": "TNFa-triggered NF-kB activation inhibitors, SAR follow-up, cell-based, revised (AID 2337)", "type": "functional"}, "[7]": {"target": "T3, Polyadenylate-binding protein 1 (Homo sapiens, UniProt P11940)", "T3 sequence (P11940 whole entry)": "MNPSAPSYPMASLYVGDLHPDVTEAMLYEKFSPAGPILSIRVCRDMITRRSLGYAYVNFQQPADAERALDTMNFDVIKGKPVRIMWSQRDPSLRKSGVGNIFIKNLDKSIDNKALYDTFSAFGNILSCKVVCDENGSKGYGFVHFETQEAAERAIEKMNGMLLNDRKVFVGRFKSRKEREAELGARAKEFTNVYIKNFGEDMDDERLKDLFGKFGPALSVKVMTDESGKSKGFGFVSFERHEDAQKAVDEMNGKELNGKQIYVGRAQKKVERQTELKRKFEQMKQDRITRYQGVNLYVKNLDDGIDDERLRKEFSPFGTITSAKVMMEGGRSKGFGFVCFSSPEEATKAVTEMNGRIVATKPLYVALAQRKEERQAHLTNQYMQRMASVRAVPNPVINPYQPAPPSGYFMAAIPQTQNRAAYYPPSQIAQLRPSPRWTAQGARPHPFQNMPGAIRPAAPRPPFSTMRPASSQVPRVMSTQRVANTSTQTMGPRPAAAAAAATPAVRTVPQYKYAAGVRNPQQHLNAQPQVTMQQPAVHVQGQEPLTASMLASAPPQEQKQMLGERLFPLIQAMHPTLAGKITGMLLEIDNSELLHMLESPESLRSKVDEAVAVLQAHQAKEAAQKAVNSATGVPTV", "assay": "PABP1 MLLE–PAM2 interaction inhibitors, dose response, miRNA deadenylation inhibitor project, biochemical, fluorescence polarization, Cy5-PAM2 peptide, secondary (AID 602260)", "type": "functional", "settings": "read-out: IC50_Mean"}, "Protein Rev": {"target": "Protein Rev (Human immunodeficiency virus type 1 group M subtype B (isolate HXB2)(HIV-1), UniProt P04618)", "sequence (P04618 whole entry)": "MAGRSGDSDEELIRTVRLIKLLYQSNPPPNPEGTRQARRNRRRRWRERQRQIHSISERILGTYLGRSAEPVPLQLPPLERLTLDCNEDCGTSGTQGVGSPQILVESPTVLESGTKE", "assay": "inhibitors of Rev binding to RRE RNA, dose response, biochemical, fluorescence polarization, HIV-1 (AID 434976)", "parameters": "species or system Human immunodeficiency virus 1"}, "[8]": {"target": "T3, Polyadenylate-binding protein 1", "assay": "PABP1 MLLE–PAM2 binding inhibitor potency, dose response, biochemical, fluorescence polarization, FITC-PAM2 peptide (AID 602259)", "type": "functional", "settings": "read-out: IC50_Mean"}, "[9]": {"target": "Female germline-specific tumor suppressor gld-1 (Caenorhabditis elegans, UniProt Q17339)", "assay": "inhibitors of GLD-1 binding to TGE RNA, dose response, biochemical, fluorescence polarization, C. elegans (AID 2802);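 also: fluorescence polarization of labeled TGE RNA bound by purified gld-1 protein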"}, "[10]": {"target": "T4, Corticotropin-releasing factor receptor 2/Corticotropin-releasing factor-binding protein (Homo sapiens, UniProt P24387+Q13324)", "T4 sequence (Q13324 whole entry)": "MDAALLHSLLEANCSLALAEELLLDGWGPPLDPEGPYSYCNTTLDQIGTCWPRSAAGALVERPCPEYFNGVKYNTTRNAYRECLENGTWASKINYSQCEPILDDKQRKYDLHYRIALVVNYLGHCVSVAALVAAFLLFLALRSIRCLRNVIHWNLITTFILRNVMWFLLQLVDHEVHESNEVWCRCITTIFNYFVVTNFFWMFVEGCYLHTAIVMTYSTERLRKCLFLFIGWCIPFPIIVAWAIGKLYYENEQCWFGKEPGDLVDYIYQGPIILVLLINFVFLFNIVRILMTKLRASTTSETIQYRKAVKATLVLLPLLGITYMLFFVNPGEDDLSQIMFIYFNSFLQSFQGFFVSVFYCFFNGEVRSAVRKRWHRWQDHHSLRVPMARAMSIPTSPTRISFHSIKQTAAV", "T4 sequence (P24387 whole entry)": "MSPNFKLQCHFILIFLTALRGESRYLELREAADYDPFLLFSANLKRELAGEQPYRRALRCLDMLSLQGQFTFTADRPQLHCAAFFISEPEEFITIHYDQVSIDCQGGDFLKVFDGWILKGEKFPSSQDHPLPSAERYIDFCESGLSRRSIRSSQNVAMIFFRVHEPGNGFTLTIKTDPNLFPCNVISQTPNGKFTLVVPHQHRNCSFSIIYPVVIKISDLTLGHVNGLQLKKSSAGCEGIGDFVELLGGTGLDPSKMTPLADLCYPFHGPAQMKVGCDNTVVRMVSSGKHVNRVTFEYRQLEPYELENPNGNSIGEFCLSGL", "assay": "Dose Response confirmation of uHTS hits for small molecule antagonists of the CRF-binding protein and CRF-R2 receptor complex.", "type": "functional", "settings": "read-out: IC50_Mean"}, "[11]": {"target": "T4, Corticotropin-releasing factor receptor 2/Corticotropin-releasing factor-binding protein", "assay": "activators of CRF receptor 2 with binding protein – uHTS hits, confirmation (AID 602473)", "type": "functional", "settings": "read-out: EC50_Mean"}, "[12]": {"target": "Acyl-homoserine lactone acylase PvdQ (Pseudomonas aeruginosa (strain LESB58), UniProt Q9I194)", "assay": "P. aeruginosa PvdQ acylase inhibitors, dose response, biochemical, fluorescence, plate reader and imaging, cherry-picks (AID 493231)"}, "[13]": {"assay": "CRF-BP/CRF-R2 complex antagonists, dose response, cell-based, uHTS hits, 384-well (AID 651639)", "type": "functional, Homo sapiens", "settings": "read-out: IC50_Mean"}, "[14]": {"assay": "A cytotoxicity screen of small molecule inhibitors of the PhoP region in Salmonella typhi identified in the primary screen. [Related pubchem assays: 1850, 1864, 1985 ]", "type": "functional"}},
  "note": "Calls of active or inactive are those of the source.",
  "data": [
    {"smiles": "C[C@]12CS(=O)(=O)C[C@H]1SC(=S)N2c1ccccc1", "values": [
      {"measurement": "EC50", "setting": "[1]", "result": "> 55.7 µM (not active)"},
      {"measurement": "EC50", "setting": "[2]", "result": "> 55.7 µM (not active)"}
    ]},
    {"smiles": "COc1ccc(-c2noc(CCC(=O)N3CCN(c4cccc(C(F)(F)F)c4)CC3)n2)cc1", "values": [
      {"measurement": "IC50", "setting": "Estrogen receptor beta", "result": "> 50 µM (not active)"},
      {"measurement": "EC50", "setting": "[3]", "result": "4.32 µM (active)"},
      {"measurement": "EC50", "setting": "[4]", "result": "1.62 µM (active)"}
    ]},
    {"smiles": "CSC(S)=NN=Cc1ccc(Br)cc1", "values": [
      {"measurement": "IC50", "setting": "HEK293", "result": "> 20 µM (inactive)"},
      {"measurement": "IC50", "setting": "[5]", "result": "> 20 µM (inactive)"},
      {"measurement": "IC50", "setting": "[6]", "result": "> 20 µM (inactive)"},
      {"measurement": "IC50", "setting": "Tumor necrosis factor", "result": "> 20 µM (inactive)"}
    ]},
    {"smiles": "Cc1ccc2c3c(cccc13)-c1ccccc1C2=O", "values": [
      {"measurement": "IC50", "setting": "[7]", "result": "38.3 µM (inactive)"},
      {"measurement": "IC50", "setting": "Protein Rev", "result": "10.1 µM (not active)"},
      {"measurement": "IC50", "setting": "[8]", "result": "51.1 µM (inactive)"},
      {"measurement": "IC50", "setting": "[9]", "result": "2.67 µM (active)"}
    ]},
    {"smiles": "O=[N+]([O-])c1cccnc1Sc1ccc(Cl)cc1", "values": [
      {"measurement": "IC50", "setting": "[10]", "result": "< 0.368 µM (active)"},
      {"measurement": "EC50", "setting": "[11]", "result": "> 53 µM (inactive)"},
      {"measurement": "AC50", "setting": "[12]", "result": "30.1 µM (active)"},
      {"measurement": "IC50", "setting": "[13]", "result": "3.1 µM (active)"}
    ]},
    {"smiles": "CC(C)c1ccc(NC(=O)CSc2nnc(-c3ccccn3)n2C)cc1", "values": [
      {"measurement": "EC50", "setting": "[14]", "result": "> 50 µM (active)"}
    ]}
  ]
}
